Reference: BigSolDB 2.1

CC(C)(C)C(=O)C(Oc1ccc(Cl)cc1)n1ccnc1 (stereo not drawn)
solubility (mole fraction)
Conditions	in acetone	in acetonitrile	in ethanol	in ethyl acetate	in isobutanol	in methanol	in methyl acetate	in n-butanol	in n-butyl acetate
288.15 K	0.147	0.0724	0.112	0.0909	0.098	0.161	0.0955	0.111	0.088
293.15 K	0.164	0.083	0.132	0.105	0.112	0.181	0.109	0.131	0.0994
298.15 K	0.185	0.103	0.157	0.126	0.137	0.204	0.129	0.152	0.115
303.15 K	0.207	0.129	0.185	0.151	0.161	0.226	0.156	0.181	0.142
308.15 K	0.235	0.158	0.211	0.172	0.192	0.255	0.179	0.205	0.163
313.15 K	0.259	0.19	0.25	0.202	0.22	0.28	0.214	0.245	0.192
318.15 K	0.301	0.222	0.288	0.239	0.26	0.318	0.251	0.283	0.227
